Results reported in patent US20250179047A1, “5-[7-(3,4-DIHYDRO-1H-ISOQUINOLINE-2-CARBONYL)-1,2,3,4 TETRAHYDROISOQUINOLIN-6-YL]-1H-PYRROLE-3-CARBOXAMIDE DERIVATIVES, PHARMACEUTICAL COMPOSITIONS CONTAINING THEM AND THEIR USES AS PRO-APOPTOTIC AGENTS” (LES LABORATOIRES SERVIER, priority 2022, published 2025).

Tests used:
KMS12PE Bcl2 F104I = assay: In vitro cytotoxicity CellTiterGlo 72 h, KMS12PE Bcl2 F104I; type: cell-based; conditions: Homo sapiens, KMS-12-PE, read-out: C50 nM, KMS12PE Bcl2 F104I
Description: (§1) KMS-12-PE (ACC 606) were purchased from the Leibniz-Institute DSMZ (Braunschweig, Germany) and were grown at 37° C. in a humidified atmosphere with 5% CO2 in media recommended by the suppliers. Lentiviral particles containing Bcl-2 wild type (also named “Bcl2 WT”), Bcl-2 mutated on G101V (also named “Bcl2 G101V”), Bcl-2 mutated on D103Y (also named “Bcl2 D103Y”), Bcl-2 mutated on D103V (also named “Bcl2 D103V”), Bcl-2 mutated on D103E (also named “Bcl2 D103E”), Bcl-2 mutated on F104I (also named “Bcl2 F104I”), Bcl-2 mutated on F104L (also named “Bcl2 F104L”), Bcl-2 mutated on D111A (also named “Bcl2 D111A”), Bcl-2 mutated on A113G (also named “Bcl2 A113G”), Bcl-2 mutated on R129L (also named “Bcl2 R129L”), Bcl-2 mutated on V156D (also named “Bcl2 V156D”) were cloned into pcLV-CMV-DEST-IRES-TagRFP. Lentiviral particles (1×10^6) were mixed with Polybrene at 8 μg/ml and transduced by spinoculation for 1 h at 32° C. and incubated overnight. After 8 days, TagRFP positive-cells were sorted by FACS. BCL2 expression was monitored by immunoblotting using anti-Flag and anti-BCL2 antibodies. Cells were seeded into 96-wells plates and treated with 1:3.16 serial dilution of compounds (9 different concentrations). Cell viability was assessed using CellTiterGlo reagent following treatment for 72 h. Results were normalized to the viability of cells without compounds (control wells). The C50 values were calculated using nonlinear regression algorithms in XCell software.

BCL2 WT = BCL2 WT (Homo sapiens (Human), UniProt P10415); assay: TR-FRET competitive binding assay, BCL2 WT; conditions: Ki determined from IC50, read-out: TR_FRET EKI_Bcl2 WT
Chain of BCL2 WT (P10415 other isoform, or with tags, fused parts or gaps): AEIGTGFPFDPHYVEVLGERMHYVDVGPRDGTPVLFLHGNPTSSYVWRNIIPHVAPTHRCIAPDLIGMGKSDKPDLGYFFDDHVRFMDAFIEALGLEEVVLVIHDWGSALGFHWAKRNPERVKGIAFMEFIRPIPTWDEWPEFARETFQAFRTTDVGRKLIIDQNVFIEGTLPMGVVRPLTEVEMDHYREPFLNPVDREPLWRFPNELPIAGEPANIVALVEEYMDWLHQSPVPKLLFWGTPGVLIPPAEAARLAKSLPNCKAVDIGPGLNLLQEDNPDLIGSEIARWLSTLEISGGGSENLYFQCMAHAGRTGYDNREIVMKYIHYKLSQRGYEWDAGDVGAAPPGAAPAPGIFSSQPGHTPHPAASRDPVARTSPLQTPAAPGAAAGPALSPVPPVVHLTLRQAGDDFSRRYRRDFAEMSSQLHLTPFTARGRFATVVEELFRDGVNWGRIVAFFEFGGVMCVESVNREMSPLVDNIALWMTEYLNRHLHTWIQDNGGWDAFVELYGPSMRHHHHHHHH
Procedure, shortened: (§2)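 Terbium-labelled N-terminal Halo-fusion BCL2 or BCLXL (E. coli), 0.5 nM, competed against fluorescein-labelled PUMA peptide (2 or 20 nM) for 2 h at 23° C in 50 mM Hepes pH 7.5, 150 mM NaCl, 5% DMSO. TR-FRET 520/495 nm ratio gave IC50 by four-parameter fit; Ki derived from IC50.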

KMS12PE Bcl2 A113G = assay: In vitro cytotoxicity CellTiterGlo 72 h, KMS12PE Bcl2 A113G; type: cell-based; conditions: Homo sapiens, KMS-12-PE, read-out: C50 nM, KMS12PE Bcl2 A113G
Description: as §1

platelets = assay: Platelet depletion in SCID mice; type: in vivo; conditions: 25 mg/kg IV bolus, vs control group; for Platelet loss (%) 6 h: 6 h after dosing; for Platelet loss (%) 24 h: 24 h after dosing
Procedure, shortened: (§3)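 SCID mice received 25 mg/kg IV bolus in PEG/ethanol/0.9% NaCl (40/10/50). […] sampled 0.05–24 h for LC-MS/MS, with Cinf and AUC24 from non-compartmental analysis. Platelet counts by hematology analyzer at 6 h and 24 h, given as % loss versus a 6-animal control group.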

BCL2 D111A = BCL2 D111A (Homo sapiens, UniProt P10415, D111A); assay: TR-FRET competitive binding assay, BCL2 D111A; conditions: Ki determined from IC50, read-out: TR_FRET EKI_Bcl2 D111A
Procedure, shortened: as §2

KMS12PE = assay: In vitro cytotoxicity CellTiterGlo 72 h, KMS12PE; type: cell-based; conditions: Homo sapiens, KMS-12-PE, read-out: C50 nM, KMS12PE
Description: as §1

[1] = Pharmacokinetics in SCID mice; type: in vivo; conditions: 25 mg/kg IV bolus; for PK parameters Cinf: concentration at the end of bolus administration; for AUC: mouse, blood, area under curve over 24 h, read-out: PK parameters AUC24
Procedure, shortened: as §3

SMILES	IC50 (KMS12PE Bcl2 F104I)	Ki (BCL2 WT)	IC50 (KMS12PE Bcl2 A113G)	Platelet loss (%) 6 h (platelets)	Platelet loss (%) 24 h (platelets)	Ki (BCL2 D111A)	IC50 (KMS12PE)	PK parameters Cinf [1]	AUC [1]
COC[C@@H]1Cc2ccccc2CN1C(=O)c1cc2c(cc1-c1cc(C(=O)N(c3ccc(O)cc3)c3cc(C#N)n(C)c3C)c(C)n1C)CCN(C(=O)Cc1ccc(OCCC3CCOCC3)cc1F)C2 [Example 52, N-(5-cyano-1,2-dimethylpyrrol-3-yl)-5-[2-(2-{2-fluoro-4-[2-(oxan-4-yl)ethoxy]phenyl}acetyl)-7-{[(3S)-3-(methoxymethyl)-3,4-dihydro-1H-isoquinolin-2-yl]carbonyl}-3,4-dihydro-1H-isoquinolin-6-yl]-N-(4-hydroxyphenyl)-1,2-dimethylpyrrole-3-carboxamide]	11.1 nM	0.2 nM	3.99 nM	34.3%	33.0%	0.64 nM	0.21 nM	18.0 µM	33.7 µM·h
Cc1c(N(C(=O)c2cc(-c3cc4c(cc3C(=O)N3Cc5ccccc5C[C@H]3C)CN(C(=O)Cc3ccc(OCCN5CCSCC5)cc3)CC4)n(C)c2C)c2ccc(O)cc2)cc(C#N)n1C [Example 55, N-(5-cyano-1,2-dimethyl-1H-pyrrol-3-yl)-N-(4-hydroxyphenyl)-1,2-dimethyl-5-{7-[(3R)-3-methyl-1,2,3,4-tetrahydroisoquinoline-2-carbonyl]-2-(2-{4-[2-(thiomorpholin-4-yl)ethoxy]phenyl}acetyl)-1,2,3,4-tetrahydroisoquinolin-6-yl}-1H-pyrrole-3-carboxamide]	57.8 nM	0.1 nM	5.53 nM	26.9%	33.9%	0.25 nM	0.33 nM	17.3 µM	11.4 µM·h
